Reference: paper PMC3798605, “Independent Pathways Can Transduce the Life-Cycle Differentiation Signal in Trypanosoma brucei” (PLoS Pathogens, 2013)

Target: T1, TbPTP1/TbPIP39 (Trypanosoma brucei, UniProt Q38AT7+Q38EW0)
T1 construct: gene Tb10.70.0070; His-TbPTP1 plus GST-TbPIP39 (recoded synthetic gene, pGEX4T1); biophysical preparations described in supplement
T1 sequence (Q38AT7 1-306): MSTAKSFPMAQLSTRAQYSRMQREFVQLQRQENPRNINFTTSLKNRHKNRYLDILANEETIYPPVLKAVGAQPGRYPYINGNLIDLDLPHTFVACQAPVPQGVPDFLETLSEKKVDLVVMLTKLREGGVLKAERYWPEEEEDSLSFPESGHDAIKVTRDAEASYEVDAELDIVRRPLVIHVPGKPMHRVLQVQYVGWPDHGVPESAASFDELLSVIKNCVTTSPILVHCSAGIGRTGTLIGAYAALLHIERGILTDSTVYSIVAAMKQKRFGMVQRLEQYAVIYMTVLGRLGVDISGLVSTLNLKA
T1 sequence (Q38EW0 1-343): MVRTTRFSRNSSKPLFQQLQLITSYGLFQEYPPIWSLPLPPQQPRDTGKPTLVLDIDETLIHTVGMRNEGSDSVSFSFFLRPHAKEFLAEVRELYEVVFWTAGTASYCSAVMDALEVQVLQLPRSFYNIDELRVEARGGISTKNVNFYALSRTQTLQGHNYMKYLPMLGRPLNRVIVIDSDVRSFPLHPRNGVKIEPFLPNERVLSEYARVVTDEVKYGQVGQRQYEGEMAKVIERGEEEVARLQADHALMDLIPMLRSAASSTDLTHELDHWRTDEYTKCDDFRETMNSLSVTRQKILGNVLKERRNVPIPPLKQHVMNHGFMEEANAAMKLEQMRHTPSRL
Assay: SPR, ligand-dependent TbPTP1-TbPIP39 interaction
Assay type: binding
Conditions: isocitrate-promoted complex formation, indirect evidence; TbPTP1 immobilised

O=C(O)C[C@H](C(=O)O)[C@@H](O)C(=O)O [isocitrate]
SPR, ligand-dependent TbPTP1-TbPIP39 interaction: isocitrate, which does not stimulate differentiation, also promoted the interaction between TbPTP1 and wild type
